Measurements published in ChEMBL document CHEMBL1649397, “Synthesis of a-factor peptide from Saccharomyces cerevisiae and photoactive analogues via Fmoc solid phase methodology” (Bioorg Med Chem, 2011).
Active and inactive are the calls of the source. The calls are words filed in the database; no cut-off is given here. Where a SMILES comes first, the peptide text is derived from it. The star is where a group is joined. X3 = C/C(=C/C*)CC/C=C(\C)COCc1cccc(C(=O)c2ccccc2)c1; X2 = C/C(=C/C*)COCc1cccc(C(=O)c2ccccc2)c1; X1 = CC(C)=CCC/C(C)=C/CC/C(C)=C\C*

Assays:
Assay type in all cases: functional, organism-based
Saccharomyces cerevisiae [1] = experiment: Growth arrest against Saccharomyces cerevisiae RC757 assessed as zone of inhibition at 0.25 ng after overnight incubation
Saccharomyces cerevisiae [2] = experiment: Growth arrest against Saccharomyces cerevisiae LM102 assessed as zone of inhibition after overnight incubation
Saccharomyces cerevisiae [3] = experiment: Growth arrest against Saccharomyces cerevisiae RC757 assessed as zone of inhibition after overnight incubation
Saccharomyces cerevisiae [4] = experiment: Growth arrest against Saccharomyces cerevisiae RC757 assessed as zone of inhibition at 0.50 ng after overnight incubation

For `CC[C@H](C)[C@H](NC(=O)[C@@H](NC(=O)[C@@H](N)Cc1ccc(O)cc1)[C@@H](C)CC)C(=O)N[C@@H](CCCCN)C(=O)NCC(=O)N[C@H](C(=O)N[C@@H](Cc1ccccc1)C(=O)N[C@@H](Cc1c[nH]c2ccccc12)C(=O)N[C@@H](CC(=O)O)C(=O)N1CCC[C@H]1C(=O)N[C@@H](C)C(=O)N[C@@H](CSC/C=C(/C)COCc1cccc(C(=O)c2ccccc2)c1)C(=O)OC)C(C)C` (H-YIIKGVFWDPAC(X2)-OMe), the “inhibition zone (IZ)” value (Saccharomyces cerevisiae [1]) was “Active”.
In the case of `CC[C@H](C)[C@H](NC(=O)[C@@H](NC(=O)[C@@H](N)Cc1ccc(O)cc1)[C@@H](C)CC)C(=O)N[C@@H](CCCCN)C(=O)NCC(=O)N[C@H](C(=O)N[C@@H](Cc1ccccc1)C(=O)N[C@@H](Cc1c[nH]c2ccccc12)C(=O)N[C@@H](CC(=O)O)C(=O)N1CCC[C@H]1C(=O)N[C@@H](C)C(=O)N[C@@H](CSC/C=C(/C)CC/C=C(\C)CCC=C(C)C)C(=O)OC)C(C)C` (H-YIIKGVFWDPAC(X1)-OMe), the “inhibition zone (IZ)” value (Saccharomyces cerevisiae [2]) is reported as “inactive” and the “inhibition zone (IZ)” value (Saccharomyces cerevisiae [3]) is reported as “Active”.
In the case of `CC[C@H](C)[C@H](NC(=O)[C@@H](NC(=O)[C@@H](N)Cc1ccc(O)cc1)[C@@H](C)CC)C(=O)N[C@@H](CCCCN)C(=O)NCC(=O)N[C@H](C(=O)N[C@@H](Cc1ccccc1)C(=O)N[C@@H](Cc1c[nH]c2ccccc12)C(=O)N[C@@H](CC(=O)O)C(=O)N1CCC[C@H]1C(=O)N[C@@H](C)C(=O)N[C@@H](CSC/C=C(/C)CC/C=C(\C)COCc1cccc(C(=O)c2ccccc2)c1)C(=O)OC)C(C)C` (H-YIIKGVFWDPAC(X3)-OMe), the “inhibition zone (IZ)” value (Saccharomyces cerevisiae [4]) is reported as “Active”.
